The values that follow are results of earlier work, collected in patent publication US20120142605A1, “METHODS OF TREATING PSORIASIS” (Amgen Inc., priority 2009, published 2012).

In this series the test system is psoriasis patients. To be noted: not completely effective for all patients.

For etanercept, the “time for which it can be safely and effectively used” value is on record as “at least 96 weeks”.
